For one data set, the system named is RT4-D12 Schwannoma cells. Nature of the data set: Fluorescence confocal microscopy of P0 staining. Particulars: 1 h at 4 °C. In kind it is cell-based. The protocol: RT4-D12 Schwannoma cells were trypsinized and seeded onto 35 mm culture dishes that contained a glass insert (MatTek co, Emu Plains, New South Wales, Australia) two days prior to the imaging experiment. Then, 0.5–1000 nM Cy5-P0_101–125 or Cy5-(P0_101–125)2 was added one hour prior to imaging (incubation at 4 °C; n = 3 per tracer). Peptide solutions were sonicated for 20 s prior to addition to prevent aggregation of the peptide in solution. Lysotracker (lysotracker green; 2 µL/mL DND-26, Thermo Fisher, Waltham, MA, USA) and Hoechst (33,342, 1 mg/mL, 1:500, Thermo Fisher) were added to the to provide staining of lysosomes and the nucleus, respectively.
Images were acquired following Cy5 excitation at 633 nm. Emission was collected between 650–700 nm. For visualization of the lysosomes in the cells, a 488 nm laser was used for excitation, while emission was collected between 500–550 nm. Hoechst was excited at 405 nm, and emission was collected between 410–460 nm. Fluorescence confocal images were acquired using a Leica SP8 WL at sequential settings and 63× magnification. Image analysis was performed using Leica Confocal Software (Leica Microsystems). Semi-quantitative analysis of the Cy5 signal intensity was performed using the quantification tool in Fiji software according to previously described methods.

Data set [1] can be described thus: Stability towards glutathione. Format: physicochemical. Here is the method: For the stability towards glutathione, which is used as a measure of stability towards thiols and amines in vivo, 125 µL of a 2 mM solution of the compound in (0.1 M HEPES pH 7.4, pre-sparged with N2) was added to 125 µL of a 4 mM solution of reduced glutathione in 0.1M HEPES pH 7.4 (pre-sparged with N2). The solutions were mixed and then placed in a sample manager. A sample was analyzed at 37 degrees over 6 h in total to determine the amount of compound relative to t = 0.

Starred links: 1 amine or outer side, 2 acyl side, 3 side chain; linkers in the order of their positions; H or OH if unused. Positions of bridges follow the written chain, without caps; N, C: chain ends. Chains are numbered I, II in the order given. X1 = CC1(C)C(/C=C/C=C/C=C2/N(CCCCCC(=O)NCCN3C(=O)CC([*:1])C3=O)c3ccc(S(=O)(=O)O)cc3C2(C)C)=[N+](CCCCCC(=O)NCCN2C(=O)CC([*:2])C2=O)c2ccc(S(=O)(=O)[O-])cc21

In general, amount remaining refers to what is left of the initial amount, in per cent. A low value points to more turnover. Consider “I: Ac-KNPPDIVGKTSQVTLYVFEKVPTRYC-NH2 / II: Ac-KNPPDIVGKTSQVTLYVFEKVPTRYC-NH2 (linker I:26-II:26 via X1) [Cy5-(P0_101–125)2]”, for which the loss of fluorescence intensity with temperature increase was found to be 65%. Besides, the “P0-related staining at 100 nM tracer” value in the data set with RT4-D12 Schwannoma cells is recorded as “cells could be clearly discriminated”. In data set [1] (HEPES buffer with reduced glutathione, 2 mM compound mixed 1:1 with 4 mM reduced glutathione, 0.1 M HEPES pH 7.4 (N2 sparged), 37 degrees, amount relative to t = 0), the amount remaining at 6 h, 1 mM amounted to 96%. Moreover, in data set [1] (reduced glutathione, 0.1 M HEPES pH 7.4, 37 degrees, 6 h), the “degradation in glutathione stability test” value is 4%.
